Measurements: ChEMBL document CHEMBL4813953, “Kinetics-Driven Drug Design Strategy for Next-Generation Acetylcholinesterase Inhibitors to Clinical Candidate” (J Med Chem, 2021)
Calls of active or inactive are those of the source. The calls are words filed in the database; no cut-off is given here.

System: not listed separately
Experiment: Solubility of the compound
Format: physicochemical
Settings: not given

Question: For COc1cc2c(cc1OC)C(=O)C(CC1(F)CCN(Cc3c(F)c(F)c(F)c(F)c3F)CC1)C2 (stereo not given), which solubility is on record?
Answer: Insoluble

Target: Acetylcholinesterase (Homo sapiens, UniProt P22303)
Experiment: Binding affinity to CM5 sensor chip immobilized recombinant human AChE assessed as dissociation constant at 298.15 K by surface plasmon resonance assay
Settings: not given

Sequence of Acetylcholinesterase (Homo sapiens, UniProt P22303) (P22303 whole entry): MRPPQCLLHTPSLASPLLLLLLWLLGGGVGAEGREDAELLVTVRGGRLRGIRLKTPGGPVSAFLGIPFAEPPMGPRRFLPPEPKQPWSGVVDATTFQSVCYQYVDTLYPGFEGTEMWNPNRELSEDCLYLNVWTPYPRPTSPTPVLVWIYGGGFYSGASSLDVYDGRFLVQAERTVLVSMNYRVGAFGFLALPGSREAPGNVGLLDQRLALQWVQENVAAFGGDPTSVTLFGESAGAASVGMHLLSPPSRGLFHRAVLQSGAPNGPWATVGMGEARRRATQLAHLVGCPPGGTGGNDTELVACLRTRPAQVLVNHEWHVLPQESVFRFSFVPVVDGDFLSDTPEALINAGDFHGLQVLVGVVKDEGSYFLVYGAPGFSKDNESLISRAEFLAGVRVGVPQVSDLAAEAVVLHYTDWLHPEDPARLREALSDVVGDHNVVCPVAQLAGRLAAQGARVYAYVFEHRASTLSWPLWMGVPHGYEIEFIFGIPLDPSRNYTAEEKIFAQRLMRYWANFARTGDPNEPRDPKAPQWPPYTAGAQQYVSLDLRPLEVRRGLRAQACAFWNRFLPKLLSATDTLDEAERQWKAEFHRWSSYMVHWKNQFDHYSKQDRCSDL

Question: For COc1cc2c(cc1OC)C(=O)C(CC1(F)CCN(Cc3ccc(F)cc3F)CC1)C2 (stereo not given), which Kd is on record?
Answer: 3.47 nM

Question: Which Kd does the source give for COc1cc2c(cc1OC)C(=O)C(CC1(F)CCN(Cc3cc(F)c(F)cc3F)CC1)C2 (stereo not given) here?
Answer: 5.23 nM

Question: Which Kd does the source give for C/C=C1\[C@H]2C=C(C)C[C@]1(N)c1ccc(=O)[nH]c1C2 [HUPERZINE A] here?
Answer: 17 nM

Question: For COc1cc2c(cc1OC)C(=O)C(CC1(F)CCN(Cc3ccccc3)CC1)C2 (stereo not given), which Kd is on record?
Answer: 4.61 nM

Question: Which Kd does the source give for COc1cc2c(cc1OC)C(=O)C(CC1(F)CCN(Cc3cccc(F)c3)CC1)C2 (stereo not given) here?
Answer: 5.02 nM

Question: Which Kd does the source give for COc1cc2c(cc1OC)C(=O)C(CC1(F)CCN(Cc3ccc(F)cc3)CC1)C2 (stereo not given) here?
Answer: 2.78 nM

Target: T1, Acetylcholinesterase (Rattus norvegicus, UniProt P37136)
T1 sequence (P37136 whole entry): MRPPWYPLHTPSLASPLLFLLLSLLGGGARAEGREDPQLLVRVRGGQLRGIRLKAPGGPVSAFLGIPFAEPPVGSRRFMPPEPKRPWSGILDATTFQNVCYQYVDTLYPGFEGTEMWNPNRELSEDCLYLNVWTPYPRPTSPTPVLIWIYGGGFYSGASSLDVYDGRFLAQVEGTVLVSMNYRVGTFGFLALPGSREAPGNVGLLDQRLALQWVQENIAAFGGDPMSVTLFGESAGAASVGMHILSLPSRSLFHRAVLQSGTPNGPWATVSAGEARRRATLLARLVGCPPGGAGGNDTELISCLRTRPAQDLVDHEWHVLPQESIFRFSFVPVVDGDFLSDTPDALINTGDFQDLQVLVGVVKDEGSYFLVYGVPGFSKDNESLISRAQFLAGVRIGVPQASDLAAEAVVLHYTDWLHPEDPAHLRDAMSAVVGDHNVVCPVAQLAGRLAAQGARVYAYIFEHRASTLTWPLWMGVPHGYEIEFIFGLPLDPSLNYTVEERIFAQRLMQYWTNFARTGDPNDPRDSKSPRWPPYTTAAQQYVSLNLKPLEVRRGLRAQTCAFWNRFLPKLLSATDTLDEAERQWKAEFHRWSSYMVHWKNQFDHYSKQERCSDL
Experiment: Inhibition of rat cortex homogenate acetylcholinesterase using acetylthiocholine iodide as substrate incubated for 20 mins by Ellman's method
Format: tissue-based
Settings: not given

Question: With COc1cc2c(cc1OC)C(=O)C(CC1(F)CCN(CCc3ccc(F)cc3)CC1)C2 (stereo not given) as the molecule, how does the IC50 read?
Answer: 404 nM

Question: Which IC50 does the source give for COc1cc2c(cc1OC)C(=O)C(CC1(F)CCN(Cc3ccccc3C#N)CC1)C2 (stereo not given) here?
Answer: 163 nM

Question: For COc1cc2c(cc1OC)C(=O)C(CC1(F)CCN(Cc3ccc(F)cc3F)CC1)C2 (stereo not given), which IC50 is on record?
Answer: 8.33 nM

Question: For COc1ccc2c(c1)C(=O)C(CC1(F)CCN(Cc3ccccc3F)CC1)C2 (stereo not given), which IC50 is on record?
Answer: 60.5 nM

Question: For COc1cc2c(cc1F)CC(CC1(F)CCN(Cc3ccc(F)cc3)CC1)C2=O (stereo not given), which IC50 is on record?
Answer: 28.3 nM

Question: Which IC50 does the source give for COc1ccc2c(c1)C(=O)C(CC1(F)CCN(Cc3ccc(F)cc3)CC1)C2 (stereo not given) here?
Answer: 260 nM

Question: For COc1cc2c(cc1OC)C(=O)C(CC1(F)CCN(Cc3cccc(C(F)(F)F)c3)CC1)C2 (stereo not given), which IC50 is on record?
Answer: 348 nM

Question: With CCCOc1cc2c(cc1OC)CC(CC1(F)CCN(Cc3ccccc3F)CC1)C2=O (stereo not given) as the molecule, how does the IC50 read?
Answer: 25.3 nM

Question: For CCCOc1cc2c(cc1OCCC)C(=O)C(CC1(F)CCN(Cc3cccc(F)c3)CC1)C2 (stereo not given), which IC50 is on record?
Answer: 176 nM

Question: Which IC50 does the source give for COc1cc2c(cc1F)CC(CC1(F)CCN(Cc3cccc(F)c3)CC1)C2=O (stereo not given) here?
Answer: 44.9 nM

Question: Which IC50 does the source give for COc1ccc2c(c1)CC(CC1(F)CCN(Cc3ccccc3F)CC1)C2=O (stereo not given) here?
Answer: 6.29 nM

Question: Which IC50 does the source give for COc1cc2c(cc1OC)C(=O)C(CC1(F)CCN(Cc3cccc(F)c3)CC1)C2 (stereo not given) here?
Answer: 3 nM

Question: For COc1cc2c(cc1OC)C(=O)C(CC1(F)CCN(Cc3cccc(C#N)c3)CC1)C2 (stereo not given), which IC50 is on record?
Answer: 67.3 nM

Question: Which IC50 does the source give for COc1cc2c(cc1OCC1CC1)C(=O)C(CC1(F)CCN(Cc3ccc(F)cc3)CC1)C2 (stereo not given) here?
Answer: 5.39 nM

Question: Which IC50 does the source give for COc1cc2c(cc1OC)C(=O)C(CC1(F)CCN(Cc3cc(F)cc(F)c3)CC1)C2 (stereo not given) here?
Answer: 226 nM

Question: For COc1cc2c(cc1F)C(=O)C(CC1(F)CCN(Cc3ccc(F)cc3)CC1)C2 (stereo not given), which IC50 is on record?
Answer: 3.44 nM

Question: For COc1cc2c(cc1F)CC(CC1(F)CCN(Cc3ccccc3F)CC1)C2=O (stereo not given), which IC50 is on record?
Answer: 22.5 nM

Question: For COc1cc2c(cc1OC)C(=O)C(CC1(F)CCN(CCc3cccc(F)c3)CC1)C2 (stereo not given), which IC50 is on record?
Answer: 59 nM

Question: With COc1cc2c(cc1OC)C(=O)C(CC1(F)CCN(Cc3cccc(C)c3)CC1)C2 (stereo not given) as the molecule, how does the IC50 read?
Answer: 11.7 nM

Question: Which IC50 does the source give for CCCCOc1cc2c(cc1OCCCC)C(=O)C(CC1(F)CCN(Cc3cccc(F)c3)CC1)C2 (stereo not given) here?
Answer: 646 nM

Question: With COc1cc2c(cc1OC)C(=O)C(CC1(F)CCN(Cc3cc(F)cc(F)c3F)CC1)C2 (stereo not given) as the molecule, how does the IC50 read?
Answer: 306 nM

Question: For COc1cc2c(cc1F)C(=O)C(CC1(F)CCN(Cc3ccccc3F)CC1)C2 (stereo not given), which IC50 is on record?
Answer: 3.52 nM

Question: For CCCOc1cc2c(cc1OC)CC(CC1(F)CCN(Cc3ccc(F)cc3)CC1)C2=O (stereo not given), which IC50 is on record?
Answer: 18.3 nM

Question: For COc1cc2c(cc1OCC1CC1)C(=O)C(CC1(F)CCN(Cc3ccc(F)cc3F)CC1)C2 (stereo not given), which IC50 is on record?
Answer: 4.59 nM

Question: For COc1ccc2c(c1)CC(CC1(F)CCN(Cc3cccc(F)c3)CC1)C2=O (stereo not given), which IC50 is on record?
Answer: 14.1 nM

Question: For COc1cc2c(cc1F)C(=O)C(CC1(F)CCN(Cc3cccc(F)c3)CC1)C2 (stereo not given), which IC50 is on record?
Answer: 3.71 nM

Question: For COc1cc2c(cc1OCC1CC1)C(=O)C(CC1(F)CCN(Cc3cccc(F)c3)CC1)C2 (stereo not given), which IC50 is on record?
Answer: 5.87 nM

Question: For CCCCOc1cc2c(cc1OCCCC)C(=O)C(CC1(F)CCN(Cc3ccccc3F)CC1)C2 (stereo not given), which IC50 is on record?
Answer: 181 nM

Question: With COc1cc2c(cc1OC)C(=O)C(CC1(F)CCN(Cc3ccccc3C(F)(F)F)CC1)C2 (stereo not given) as the molecule, how does the IC50 read?
Answer: 1640 nM

Question: With CCCOc1cc2c(cc1OCCC)C(=O)C(CC1(F)CCN(Cc3ccccc3F)CC1)C2 (stereo not given) as the molecule, how does the IC50 read?
Answer: 66.7 nM

Question: For COc1cc2c(cc1OC)C(=O)C(CC1(F)CCN(Cc3ccc(F)c(F)c3F)CC1)C2 (stereo not given), which IC50 is on record?
Answer: 75.7 nM

Target: T2, Acetylcholinesterase (Rattus norvegicus) (UniProt P37136)
T2 sequence (whole entry): T1 sequence (P37136 whole entry)
Experiment: Inhibition of rat cortex homogenate acetylcholinesterase at 40 uM using acetylthiocholine iodide as substrate incubated for 20 mins by Ellman's method relative to control
Format: tissue-based
Settings: not given

Question: Which inhibition does the source give for COc1cc2c(cc1OC)C(=O)C(CC1(F)CCN(Cc3ccc(OC(F)(F)F)cc3)CC1)C2 (stereo not given) here?
Answer: 51.7%

Question: For COc1cc2c(cc1OC)C(=O)C(CC1(F)CCN(CCc3ccccc3F)CC1)C2 (stereo not given), which inhibition is on record?
Answer: 74.7%

Question: For COc1cc2c(cc1OC)C(=O)C(CC1(F)CCN(Cc3ccc(C(C)(C)C)cc3)CC1)C2 (stereo not given), which inhibition is on record?
Answer: 69.1%

Question: With COc1cc2c(cc1OC)C(=O)C(CC1(F)CCN(Cc3ccc(C(F)(F)F)cc3)CC1)C2 (stereo not given) as the molecule, how does the inhibition read?
Answer: 75.3%

Question: Which inhibition does the source give for COc1cc2c(cc1OCC1CC1)C(=O)C(CC1(F)CCN(Cc3ccccc3F)CC1)C2 (stereo not given) here?
Answer: 8.4%

System: Mus musculus
Experiment: Cognitive enhancing effect in mouse model of scopolamine-induced memory impairment assessed as reduction in escape latency time at 8 to 12 mg/kg, IG QD for 3 days by channel water maze test
Format: functional, organism-based
Settings: dose 8-12 mg/kg, time 3.0 day

Question: Which Activity does the source give for COc1cc2c(cc1OC)C(=O)C(CC1CCN(Cc3ccccc3)CC1)C2 (stereo not given) here?
Answer: Active

System: Mus musculus
Experiment: Cognitive enhancing effect in mouse model of scopolamine-induced memory impairment assessed as reduction in number of errors at 8 to 12 mg/kg, IG QD for 3 days by channel water maze test
Format: functional, organism-based
Settings: dose 8-12 mg/kg, time 3.0 day

Question: Which Activity does the source give for COc1cc2c(cc1OC)C(=O)C(CC1CCN(Cc3ccccc3)CC1)C2 (stereo not given) here?
Answer: Active
